In ChEMBL document CHEMBL1201861, “Genomics of Drug Sensitity in Cancer screening data, Wellcome Trust Sanger Institute”:
pIC50: −log10 of the molar value.

Legend:
Test in all cases: cells
K562 = format: functional, cell-based; conditions: Homo sapiens
Description: SANGER: Inhibition of human K-562 cell growth in a cell viability assay.

MKN-45 = format: functional, cell-based, Homo sapiens; conditions: Homo sapiens, MKN-45;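 further: growth inhibition of human MKN-45 cells, measured with a cell viability assay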
Description: SANGER: Inhibition of human MKN45 cell growth in a cell viability assay.

SNU-5 = format: functional, cell-based; conditions: Homo sapiens;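 further: cell viability readout used to measure growth inhibition in human NCI-SNU-5 cells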
Description: SANGER: Inhibition of human NCI-SNU-5 cell growth in a cell viability assay.

Becker = format: functional, cell-based, Homo sapiens; conditions: Homo sapiens, Becker;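 further: growth inhibition of Becker cells, read out with a cell viability assay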
Description: SANGER: Inhibition of human Becker cell growth in a cell viability assay.

SNU-C2B = format: functional, cell-based, Homo sapiens; conditions: Homo sapiens, SNU-C2B;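 further: cell viability readout used to measure compound-driven suppression of SNU-C2B cell proliferation, IC50 marking half-maximal growth inhibition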
Description: SANGER: Inhibition of human SNU-C2B cell growth in a cell viability assay.

OE33 = format: functional, cell-based, Homo sapiens; conditions: Homo sapiens, OE33;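 further: growth inhibition of human OE33 cells, measured by a cell viability assay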
Description: SANGER: Inhibition of human OE33 cell growth in a cell viability assay.

S-117 = format: functional, cell-based, Homo sapiens; conditions: Homo sapiens, S-117
Description: SANGER: Inhibition of human S-117 cell growth in a cell viability assay.

RH-1 = format: functional, cell-based, Homo sapiens; conditions: Homo sapiens, RH-1;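 further: growth inhibition of human RH-1 cells, read out with a cell viability assay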
Description: SANGER: Inhibition of human RH-1 cell growth in a cell viability assay.

C2BBe1 = format: functional, cell-based, Homo sapiens; conditions: Homo sapiens, C2BBe1;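 further: growth inhibition of C2BBe1 cells, read out through a viability assay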
Description: SANGER: Inhibition of human C2BBe1 cell growth in a cell viability assay.

TGBC1TKB = format: functional, cell-based, Homo sapiens; conditions: Homo sapiens, TGBC1TKB;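 further: growth inhibition of TGBC1TKB cells, read out by a cell viability assay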
Description: SANGER: Inhibition of human TGBC1TKB cell growth in a cell viability assay.

KYSE-140 = format: functional, cell-based, Homo sapiens; conditions: Homo sapiens, KYSE-140;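 further: cell viability assay measuring growth inhibition in human KYSE-140 cells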
Description: SANGER: Inhibition of human KYSE-140 cell growth in a cell viability assay.

COLO-829 = format: functional, cell-based, Homo sapiens; conditions: Homo sapiens, COLO-829
Description: SANGER: Inhibition of human COLO-829 cell growth in a cell viability assay.

CAL-72 = format: functional, cell-based, Homo sapiens; conditions: Homo sapiens, CAL-72;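 further: cell viability assay measuring inhibition of proliferation in the CAL-72 cell line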
Description: SANGER: Inhibition of human CAL-72 cell growth in a cell viability assay.

TE-11 = format: functional, cell-based, Homo sapiens; conditions: Homo sapiens, TE-11;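 further: growth inhibition of human TE-11 cells, read out by a cell viability assay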
Description: SANGER: Inhibition of human TE-11 cell growth in a cell viability assay.

SW626 = format: functional, cell-based, Homo sapiens; conditions: Homo sapiens, SW626;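 further: growth inhibition of SW626 cells, measured with a cell viability assay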
Description: SANGER: Inhibition of human SW626 cell growth in a cell viability assay.

D-502MG = format: functional, cell-based, Homo sapiens; conditions: Homo sapiens, D-502MG
Description: SANGER: Inhibition of human D-502MG cell growth in a cell viability assay.

HT-1376 = format: functional, cell-based, Homo sapiens; conditions: Homo sapiens, HT-1376
Description: SANGER: Inhibition of human HT-1376 cell growth in a cell viability assay.

EW-16 = format: functional, cell-based, Homo sapiens; conditions: Homo sapiens, EW-16;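 further: growth inhibition of human EW-16 cells, read out as cell viability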
Description: SANGER: Inhibition of human EW-16 cell growth in a cell viability assay.

RXF 393 = format: functional, cell-based; conditions: Homo sapiens;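 further: growth inhibition of human RXF 393 cells, read out with a cell viability assay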
Description: SANGER: Inhibition of human RXF393 cell growth in a cell viability assay.

GI-ME-N = format: functional, cell-based, Homo sapiens; conditions: Homo sapiens, GI-ME-N;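 further: growth inhibition of human GI-ME-N cells, read out with a cell viability assay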
Description: SANGER: Inhibition of human GI-ME-N cell growth in a cell viability assay.

HOP-92 = format: functional, cell-based, Homo sapiens; conditions: Homo sapiens, HOP-92;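 further: cell viability readout, with IC50 reflecting inhibition of HOP-92 cell growth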
Description: SANGER: Inhibition of human HOP-92 cell growth in a cell viability assay.

HCC1395 = format: functional, cell-based, Homo sapiens; conditions: Homo sapiens, HCC1395;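 further: growth inhibition of HCC1395 cells, read out by a cell viability assay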
Description: SANGER: Inhibition of human HCC1395 cell growth in a cell viability assay.

UACC-62 = format: functional, cell-based, Homo sapiens; conditions: Homo sapiens, UACC-62;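 further: growth inhibition of human UACC-62 cells, read out by a cell viability assay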
Description: SANGER: Inhibition of human UACC-62 cell growth in a cell viability assay.

HLE = format: functional, cell-based, Homo sapiens; conditions: Homo sapiens, HLE;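 further: growth inhibition of human HLE cells, read out by a cell viability assay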
Description: SANGER: Inhibition of human HLE cell growth in a cell viability assay.

D-542MG = format: functional, cell-based, Homo sapiens; conditions: Homo sapiens, D-542MG
Description: SANGER: Inhibition of human D-542MG cell growth in a cell viability assay.

HSC-3 = format: functional, cell-based, Homo sapiens; conditions: Homo sapiens, HSC-3
Description: SANGER: Inhibition of human HSC-3 cell growth in a cell viability assay.

SK-MEL-28 = format: functional, cell-based; conditions: Homo sapiens;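 further: growth inhibition of human SK-MEL-28 cells, read out with a cell viability assay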
Description: SANGER: Inhibition of human SK-MEL-28 cell growth in a cell viability assay.

NB13 = format: functional, cell-based, Homo sapiens; conditions: Homo sapiens, NB13;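 further: cell viability readout measuring growth inhibition of human NB13 cells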
Description: SANGER: Inhibition of human NB13 cell growth in a cell viability assay.

PANC-08-13 = format: functional, cell-based, Homo sapiens; conditions: Homo sapiens, PANC-08-13;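 further: cell growth inhibition, measured with a cell viability assay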
Description: SANGER: Inhibition of human PANC-08-13 cell growth in a cell viability assay.

PANC-03-27 = format: functional, cell-based, Homo sapiens; conditions: Homo sapiens, PANC-03-27
Description: SANGER: Inhibition of human PANC-03-27 cell growth in a cell viability assay.

MHH-NB-11 = format: functional, cell-based, Homo sapiens; conditions: Homo sapiens, MHH-NB-11;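 further: growth inhibition of human MHH-NB-11 cells, read out by a cell viability assay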
Description: SANGER: Inhibition of human MHH-NB-11 cell growth in a cell viability assay.

MIA PaCa-2 = format: functional, cell-based, Homo sapiens; conditions: Homo sapiens, MIA PaCa-2;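 further: growth inhibition of MIA PaCa-2 cells, read out with a cell viability assay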
Description: SANGER: Inhibition of human MIA-PaCa-2 cell growth in a cell viability assay.

DU-4475 = format: functional, cell-based; conditions: Homo sapiens
Description: SANGER: Inhibition of human DU-4475 cell growth in a cell viability assay.

DMS-79 = format: functional, cell-based; conditions: Homo sapiens;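 further: growth inhibition measured with a cell viability assay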
Description: SANGER: Inhibition of human DMS-79 cell growth in a cell viability assay.

KNS-81-FD = format: functional, cell-based, Homo sapiens; conditions: Homo sapiens, KNS-81-FD;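 further: growth inhibition of KNS-81-FD cells, read out with a cell viability assay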
Description: SANGER: Inhibition of human KNS-81-FD cell growth in a cell viability assay.

TYK-nu = format: functional, cell-based, Homo sapiens; conditions: Homo sapiens, TYK-nu;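 further: growth inhibition of human TYK-nu cells, read out by a cell viability assay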
Description: SANGER: Inhibition of human TYK-nu cell growth in a cell viability assay.

NCI-H1792 = format: functional, cell-based, Homo sapiens; conditions: Homo sapiens, NCI-H1792;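 further: growth inhibition of human NCI-H1792 cells, read out as cell viability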
Description: SANGER: Inhibition of human NCI-H1792 cell growth in a cell viability assay.

LB1047-RCC = format: functional, cell-based, Homo sapiens; conditions: Homo sapiens, LB1047-RCC;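 further: inhibition of cell growth, determined with a cell viability assay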
Description: SANGER: Inhibition of human LB1047-RCC cell growth in a cell viability assay.

ME-180 = format: functional, cell-based; conditions: Homo sapiens;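 further: cell viability assay measuring growth inhibition of ME-180 cells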
Description: SANGER: Inhibition of human ME-180 cell growth in a cell viability assay.

CP50-MEL-B = format: functional, cell-based, Homo sapiens; conditions: Homo sapiens, CP50-MEL-B;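 further: growth inhibition of the human cell line, measured with a cell viability read-out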
Description: SANGER: Inhibition of human CP50-MEL-B cell growth in a cell viability assay.

NMC-G1 = format: functional, cell-based, Homo sapiens; conditions: Homo sapiens, NMC-G1;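 further: growth inhibition of the NMC-G1 cell line, measured with a cell viability read-out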
Description: SANGER: Inhibition of human NMC-G1 cell growth in a cell viability assay.

GOTO = format: functional, cell-based, Homo sapiens; conditions: Homo sapiens, GOTO;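 further: growth inhibition of GOTO cells, read out by a cell viability assay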
Description: SANGER: Inhibition of human GOTO cell growth in a cell viability assay.

JVM-2 = format: functional, cell-based; conditions: Homo sapiens;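 further: growth inhibition of JVM-2 cells determined by a cell viability assay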
Description: SANGER: Inhibition of human JVM-2 cell growth in a cell viability assay.

MDA-MB-175-VII = format: functional, cell-based, Homo sapiens; conditions: Homo sapiens, MDA-MB-175-VII
786-0 = format: functional, cell-based, Homo sapiens; conditions: Homo sapiens
Description: SANGER: Inhibition of human 786-0 cell growth in a cell viability assay.

KYSE-270 = format: functional, cell-based, Homo sapiens; conditions: Homo sapiens, KYSE-270;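 further: cell growth inhibition measured with a viability assay in the human KYSE-270 line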
Description: SANGER: Inhibition of human KYSE-270 cell growth in a cell viability assay.

HTC-C3 = format: functional, cell-based, Homo sapiens; conditions: Homo sapiens, HTC-C3;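 further: inhibition of cell growth, read out with a cell viability assay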
Description: SANGER: Inhibition of human HTC-C3 cell growth in a cell viability assay.

CTV-1 = format: functional, cell-based; conditions: Homo sapiens;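 further: growth inhibition of the cell line, read out with a cell viability assay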
Description: SANGER: Inhibition of human CTV-1 cell growth in a cell viability assay.

NCI-H1563 = format: functional, cell-based, Homo sapiens; conditions: Homo sapiens, NCI-H1563;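 further: growth inhibition of human NCI-H1563 cells, read out with a cell viability assay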
Description: SANGER: Inhibition of human NCI-H1563 cell growth in a cell viability assay.

For `C[C@]1(O)C[C@@H](c2nc(-c3ccc4ccc(-c5ccccc5)nc4c3)c3c(N)nccn32)C1` [LINSITINIB], the pIC50 (K562) was less than 5.59, the pIC50 (MKN-45) was less than 5.59 and the pIC50 (SNU-5) was less than 5.59. For the same compound, the pIC50 (Becker) was less than 5.59, the pIC50 (SNU-C2B) was less than 5.59 and the pIC50 (OE33) was less than 5.59. The pIC50 (S-117) was less than 5.59, the pIC50 (RH-1) was 6.13 and the pIC50 (C2BBe1) was less than 5.59. For the same compound, the pIC50 (TGBC1TKB) was less than 5.59, the pIC50 (KYSE-140) was less than 5.59 and the pIC50 (COLO-829) was less than 5.59. It also gave a pIC50 (CAL-72) of less than 5.59, a pIC50 (TE-11) of 7.11 and a pIC50 (SW626) of less than 5.59. It also gave a pIC50 (D-502MG) of less than 5.59, a pIC50 (HT-1376) of less than 5.59 and a pIC50 (EW-16) of 6.73. For the same compound, the pIC50 (RXF 393) was less than 5.59, the pIC50 (GI-ME-N) was less than 5.59 and the pIC50 (HOP-92) was less than 5.59. For the same compound, the pIC50 (HCC1395) was less than 5.59, the pIC50 (UACC-62) was less than 5.59 and the pIC50 (HLE) was less than 5.59. It also gave a pIC50 (D-542MG) of less than 5.59, a pIC50 (HSC-3) of less than 5.59 and a pIC50 (SK-MEL-28) of less than 5.59. For the same compound, the pIC50 (NB13) was less than 5.59, the pIC50 (PANC-08-13) was 6.06 and the pIC50 (PANC-03-27) was less than 5.59. It also gave a pIC50 (MHH-NB-11) of less than 5.59, a pIC50 (MIA PaCa-2) of less than 5.59 and a pIC50 (DU-4475) of less than 5.59. For the same compound, the pIC50 (DMS-79) was less than 5.59, the pIC50 (KNS-81-FD) was less than 5.59 and the pIC50 (TYK-nu) was less than 5.59. The pIC50 (NCI-H1792) was less than 5.59, the pIC50 (LB1047-RCC) was less than 5.59 and the pIC50 (ME-180) was less than 5.59. It also gave a pIC50 (CP50-MEL-B) of less than 5.59, a pIC50 (NMC-G1) of less than 5.59 and a pIC50 (GOTO) of less than 5.59. The pIC50 (JVM-2) was less than 5.59, the pIC50 (MDA-MB-175-VII) was less than 5.59 and the pIC50 (786-0) was less than 5.59. It also gave a pIC50 (KYSE-270) of less than 5.59, a pIC50 (HTC-C3) of less than 5.59 and a pIC50 (CTV-1) of less than 5.59. It also gave a pIC50 (NCI-H1563) of less than 5.59.
With `C=CCc1cccc(/C=N/NC(=O)CN2CCN(Cc3ccccc3)CC2)c1O` [PAC-1] the pIC50 (K562) was less than 5.59, the pIC50 (MKN-45) was less than 5.59 and the pIC50 (SNU-5) was less than 5.59. It also gave a pIC50 (Becker) of less than 5.59, a pIC50 (SNU-C2B) of less than 5.59 and a pIC50 (OE33) of less than 5.59. For the same compound, the pIC50 (S-117) was less than 5.59, the pIC50 (RH-1) was less than 5.59 and the pIC50 (C2BBe1) was less than 5.59. It also gave a pIC50 (TGBC1TKB) of less than 5.59, a pIC50 (KYSE-140) of less than 5.59 and a pIC50 (COLO-829) of less than 5.59. The pIC50 (CAL-72) was less than 5.59, the pIC50 (TE-11) was less than 5.59 and the pIC50 (SW626) was less than 5.59. It also gave a pIC50 (D-502MG) of less than 5.59, a pIC50 (HT-1376) of less than 5.59 and a pIC50 (EW-16) of less than 5.59. It also gave a pIC50 (RXF 393) of less than 5.59, a pIC50 (GI-ME-N) of less than 5.59 and a pIC50 (HOP-92) of less than 5.59. The pIC50 (HCC1395) was less than 5.59, the pIC50 (UACC-62) was less than 5.59 and the pIC50 (HLE) was less than 5.59. It also gave a pIC50 (D-542MG) of less than 5.59, a pIC50 (HSC-3) of less than 5.59 and a pIC50 (SK-MEL-28) of less than 5.59. It also gave a pIC50 (NB13) of less than 5.59, a pIC50 (PANC-08-13) of less than 5.59 and a pIC50 (PANC-03-27) of 6.12. The pIC50 (MHH-NB-11) was less than 5.59, the pIC50 (MIA PaCa-2) was less than 5.59 and the pIC50 (DU-4475) was 5.72. The pIC50 (DMS-79) was less than 5.59, the pIC50 (KNS-81-FD) was less than 5.59 and the pIC50 (TYK-nu) was less than 5.59. The pIC50 (NCI-H1792) was less than 5.59, the pIC50 (LB1047-RCC) was less than 5.59 and the pIC50 (ME-180) was less than 5.59. The pIC50 (CP50-MEL-B) was less than 5.59, the pIC50 (NMC-G1) was less than 5.59 and the pIC50 (GOTO) was less than 5.59. For the same compound, the pIC50 (JVM-2) was less than 5.59, the pIC50 (MDA-MB-175-VII) was less than 5.59 and the pIC50 (786-0) was 6.13. It also gave a pIC50 (KYSE-270) of 5.61, a pIC50 (HTC-C3) of less than 5.59 and a pIC50 (CTV-1) of 5.71. The pIC50 (NCI-H1563) was less than 5.59.
